# Patent publication US10975119B2, “Selective cysteine protease inhibitors and uses thereof” (Genesis Technologies Limited, priority 2011, dated 2021)
# “And” between values parts separate entries of the source, which are not always exact repeats. Equal entries are not always repeated. Structures can show the parent of a compound that is named as a salt. Where two headings read alike, the source gives them in different places.
# Legend:
# Assay type in all cases: biochemical
# Caspase-4 = target: T1, Caspase-4 (Homo sapiens, UniProt P49662); assay: Caspase-4 inhibitor screening assay (BioVision kit, LEVD-AFC); conditions: for inhibition at 10 µM: read-out: % Inhibition at 10 uM Casp4; for inhibition at 100 µM: read-out: % Inhibition at 100 uM Casp4
# T1 construct: mixing the compounds with the respective active caspases; purchased BioVision K154-100
# T1 sequence (P49662 81-270 limits assumed): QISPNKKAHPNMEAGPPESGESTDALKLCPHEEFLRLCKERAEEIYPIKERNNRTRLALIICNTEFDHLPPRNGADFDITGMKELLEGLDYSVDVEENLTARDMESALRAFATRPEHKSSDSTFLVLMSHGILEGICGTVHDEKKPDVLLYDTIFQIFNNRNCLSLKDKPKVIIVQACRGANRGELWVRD
# T1 sequence (P49662 290-377 limits assumed): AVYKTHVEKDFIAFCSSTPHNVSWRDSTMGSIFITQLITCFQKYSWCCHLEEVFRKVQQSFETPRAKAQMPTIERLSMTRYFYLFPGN
# Method: (§1) The efficacy of an array of compounds as an inhibitor of the activity of Caspases 1 through 10 were assessed by using the respective Caspase Inhibitor Drug Screening Kits (Caspase-1 Catalog #: K151-100, Caspase-2 Catalog #: K152-100, Caspase-3 Catalog #: K153-100, Caspase-4 Catalog #: K154-100, Caspase-5 Catalog #: K155-100, Caspase-6 Catalog #: K156-100, Caspase-7 Catalog #: K157-100, Caspase-8 Catalog #: K158-100, Caspase-9 Catalog #: K159-100, Caspase-10 Catalog #: K160-100, BioVision) following the instructions of the manufacturer. […] Active caspases cleaved their respective synthetic substrates to release free AFC, which was then quantified by fluorometry.
# (§2) Briefly, the compounds were first tested at 2 concentrations (10 uM and 100 uM final) to determine if there is a hit. […] Each condition was tested in duplicates. […] For some samples, a smaller range of concentrations was tested depending on the % Inhibition results at 10 uM and 100 uM. Results were summarized in Tables 2, 3, and 4 herein after. Table 2 represents the IC50 values (uM) of the test compounds as inhibitors of the activity of the various caspases.
# (§3) (*) RFU (no inhibitor control)—RFU (compound at a specific concentration)
# (§4) RFU (no inhibitor control)
# Caspase-2 = target: T2, Caspase-2 (Homo sapiens, UniProt P42575); assay: Caspase-2 inhibitor screening assay (BioVision kit, VDVAD-AFC); conditions: for inhibition at 10 µM: read-out: % Inhibition at 10 uM Casp2; for inhibition at 100 µM: read-out: % Inhibition at 100 uM Casp2; for IC50: read-out: IC50 Casp2
# T2 construct: mixing the compounds with the respective active caspases; purchased BioVision K152-100
# T2 sequence (P42575 170-325 limits assumed): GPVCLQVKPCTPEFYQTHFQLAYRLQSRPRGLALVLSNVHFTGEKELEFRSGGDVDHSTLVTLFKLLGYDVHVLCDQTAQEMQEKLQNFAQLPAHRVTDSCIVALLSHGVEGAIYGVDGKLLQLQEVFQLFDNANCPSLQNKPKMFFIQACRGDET
# T2 sequence (P42575 334-452 limits assumed): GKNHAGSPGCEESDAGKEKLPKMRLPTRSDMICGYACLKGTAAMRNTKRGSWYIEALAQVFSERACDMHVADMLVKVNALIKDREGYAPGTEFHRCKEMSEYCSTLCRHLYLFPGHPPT
# Method: as §1, §2, §3, §4
# Caspase-10 = target: T3, Caspase-10 (Homo sapiens, UniProt Q92851); assay: Caspase-10 inhibitor screening assay (BioVision kit, AEVD-AFC); conditions: for inhibition at 10 µM: read-out: % Inhibition at 10 uM Casp10; for inhibition at 100 µM: read-out: % Inhibition at 100 uM Casp10
# T3 construct: mixing the compounds with the respective active caspases; purchased BioVision K160-100
# T3 sequence (Q92851 220-415 limits assumed): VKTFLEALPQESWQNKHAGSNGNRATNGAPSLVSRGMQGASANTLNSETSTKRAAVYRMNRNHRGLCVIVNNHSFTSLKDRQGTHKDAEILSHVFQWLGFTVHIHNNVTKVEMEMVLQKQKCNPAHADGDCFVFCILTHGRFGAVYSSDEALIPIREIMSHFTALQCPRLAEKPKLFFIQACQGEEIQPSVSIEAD
# T3 sequence (Q92851 416-521 limits assumed): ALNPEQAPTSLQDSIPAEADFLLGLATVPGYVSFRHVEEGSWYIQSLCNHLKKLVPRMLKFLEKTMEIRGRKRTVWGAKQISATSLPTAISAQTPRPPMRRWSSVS
# Method: as §1, §2, §3, §4
# Caspase-9 = target: T4, Caspase-9 (Homo sapiens, UniProt P55211); assay: Caspase-9 inhibitor screening assay (BioVision kit, LEHD-AFC); conditions: for inhibition at 10 µM: read-out: % Inhibition at 10 uM Casp9; for inhibition at 100 µM: read-out: % Inhibition at 100 uM Casp9
# T4 construct: purchased BioVision K159-100
# T4 sequence (P55211 1-315 limits assumed): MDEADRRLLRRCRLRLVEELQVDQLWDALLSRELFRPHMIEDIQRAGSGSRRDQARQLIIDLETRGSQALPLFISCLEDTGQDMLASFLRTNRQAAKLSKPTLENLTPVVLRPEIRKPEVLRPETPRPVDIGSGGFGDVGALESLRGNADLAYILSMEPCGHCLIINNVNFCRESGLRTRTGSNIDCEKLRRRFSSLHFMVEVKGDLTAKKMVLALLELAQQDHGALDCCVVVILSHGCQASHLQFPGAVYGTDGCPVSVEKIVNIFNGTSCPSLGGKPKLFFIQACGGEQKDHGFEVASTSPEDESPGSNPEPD
# T4 sequence (P55211 331-416 limits assumed): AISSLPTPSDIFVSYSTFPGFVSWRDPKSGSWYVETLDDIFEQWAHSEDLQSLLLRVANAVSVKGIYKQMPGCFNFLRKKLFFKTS
# Method: as §1, §2, §3, §4
# Caspase-6 = target: T5, Caspase-6 (Homo sapiens, UniProt P55212); assay: Caspase-6 inhibitor screening assay (BioVision kit, VEID-AFC); conditions: for inhibition at 10 µM: read-out: % Inhibition at 10 uM Casp6; for inhibition at 100 µM: read-out: % Inhibition at 100 uM Casp6; for IC50: read-out: IC50 Casp6
# T5 construct: mixing the compounds with the respective active caspases; purchased BioVision K156-100
# T5 sequence (P55212 24-179 limits assumed): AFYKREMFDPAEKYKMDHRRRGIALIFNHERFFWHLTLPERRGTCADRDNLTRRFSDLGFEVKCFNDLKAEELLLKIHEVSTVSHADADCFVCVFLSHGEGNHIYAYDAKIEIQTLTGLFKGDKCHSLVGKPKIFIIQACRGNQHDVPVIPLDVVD
# T5 sequence (P55212 194-293 limits assumed): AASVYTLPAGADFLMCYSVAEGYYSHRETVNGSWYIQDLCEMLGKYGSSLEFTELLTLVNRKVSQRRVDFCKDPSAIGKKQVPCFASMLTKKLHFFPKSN
# Method: as §1, §2, §3, §4
# Caspase-8 = target: T6, Caspase-8 (Homo sapiens, UniProt Q14790); assay: Caspase-8 inhibitor screening assay (BioVision kit, IETD-AFC); conditions: for inhibition at 10 µM: read-out: % Inhibition at 10 uM Casp8; for inhibition at 100 µM: read-out: % Inhibition at 100 uM Casp8
# T6 construct: mixing the compounds with the respective active caspases; purchased BioVision K158-100
# Method: as §1, §2, §3, §4
# [1] = read-out: potency (IC50) against caspase-4
# [2] = read-out: potency (IC50) against caspase-10
# [3] = read-out: potency (IC50) against caspase-9
# T6 sequence (Q14790 217-374 limits assumed): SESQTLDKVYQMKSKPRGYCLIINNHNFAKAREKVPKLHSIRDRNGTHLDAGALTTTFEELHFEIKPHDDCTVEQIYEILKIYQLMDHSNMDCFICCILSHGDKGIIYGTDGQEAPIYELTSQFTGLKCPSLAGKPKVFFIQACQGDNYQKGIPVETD
# T6 sequence (Q14790 385-479 limits assumed): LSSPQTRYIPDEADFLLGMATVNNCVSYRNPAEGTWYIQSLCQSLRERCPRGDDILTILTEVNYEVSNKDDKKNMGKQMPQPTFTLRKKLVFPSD
inhibition at 10 µM (Caspase-4) [%],inhibition at 100 µM (Caspase-4) [%],IC50 (Caspase-4; read-out: IC50 Casp4) [µM],inhibition at 10 µM (Caspase-2) [%],inhibition at 100 µM (Caspase-2) [%],IC50 (Caspase-2) [µM],inhibition at 10 µM (Caspase-10) [%],inhibition at 100 µM (Caspase-10) [%],IC50 (Caspase-10; read-out: IC50 Casp10) [µM],inhibition at 10 µM (Caspase-9; 10 uM) [%],inhibition at 100 µM (Caspase-9; 100 uM) [%],IC50 (Caspase-9; read-out: IC50 Casp9) [µM],inhibition at 10 µM (Caspase-6) [%],inhibition at 100 µM (Caspase-6) [%],IC50 (Caspase-6) [µM],inhibition at 10 µM (Caspase-8; 10 uM) [%],inhibition at 100 µM (Caspase-8; 100 uM) [%],IC50 (Caspase-8; read-out: IC50 Casp8),Structure (SMILES),further results
100,100,0.09,1,10,> 100,81,100,2.67,77,99,2.3,3,30,> 100,46,95,12.8 µM and 12.9 µM,"CC(C)(C)[C@H](NC(=O)c1ccc(N)c(Cl)c1)C(=O)N1CCCC1C(=O)N[C@H](/C=C/S(C)(=O)=O)CC(=O)O (stereo in doubt) [Compound 14, 4-amino-3-chlorobenzene carbonyl-t-Leu-Pro-Asp methyl vinyl sulfone]",IC50 (Caspase-4; [1]): 0.087 µM; IC50 (Caspase-10; [2]): 2.67 µM; IC50 (Caspase-9; [3]): 2.31 µM
0,4,> 100,14,18,> 100,0,0,> 100,1,10,> 100,1,10,> 100,3,4,> 100 µM,"CC(C)(C)OC(=O)CC[C@H](NC(=O)OC(C)(C)C)C(=O)N[C@H](/C=C/S(C)(=O)=O)CC(=O)OC(C)(C)C [Compound 21, Boc-Glu(O—tBu)-Asp (O—tBu)-methyl vinyl sulfone]",
57,99,9.02,0,19,> 100,31,98,18.6,39,87,16.9,0,19,> 100,0,33,> 100 µM,"CC(C)[C@H](NC(=O)[C@H](Cc1cn(C)c2ccccc12)NC(=O)[C@H](CC(=O)O)NC(=O)OCc1ccccc1)C(=O)N[C@H](/C=C/S(C)(=O)=O)CC(=O)O [Compound 36, Z-Asp-Trp(N-Me)-Val-Asp-methyl vinyl sulfone]",
99,100,1.55,2,10,> 100,3,74,56,1,51,~100,0,3,> 100,0,22,> 100 µM,"CC(C)(C)[C@H](NC(=O)c1ccc2ccccc2n1)C(=O)N1CCC[C@@H]1C(=O)N[C@H](/C=C/S(C)(=O)=O)CC(=O)O [Compound 6, 2-Quinoline carbonyl-t-Leu-pro-Asp methyl vinyl sulfone]",IC50 (Caspase-4; [1]): 1.55 µM
100,98,0.51,0,17,,96,99,0.59,92,92,1,13,10,,77,79,2.62 µM,"CCOC(=O)/C=C/[C@H](CC(=O)O)NC(=O)[C@@H](NC(=O)[C@@H](NC(=O)[C@H](CC(=O)O)NC(=O)OCc1ccccc1)c1ccccc1)C(C)C [Compound 105, Z-Asp-Phg-Val-Asp Ethyl Vinyl Ester]",IC50 (Caspase-10; [2]): 0.592 µM; IC50 (Caspase-9; [3]): 0.994 µM; IC50 (Caspase-8; read-out: potency (IC50) against caspase-8): 2.62 µM
0,0,> 100,1,3,> 100,26,35,> 100,0,0,> 100,0,0,> 100,5,14,> 100 µM,"CC(C)[C@H](NC(=O)c1ccc2ccccc2n1)C(=O)N[C@H](/C=C/S(C)(=O)=O)CC(=O)O [Compound 16, 2-Quinoline carbonyl-Val-Asp methyl vinyl sulfone]",

Structure (SMILES),inhibition at 10 µM (Caspase-4) [%],inhibition at 100 µM (Caspase-4) [%],IC50 (Caspase-4; read-out: IC50 Casp4) [µM],inhibition at 10 µM (Caspase-2) [%],inhibition at 100 µM (Caspase-2) [%],IC50 (Caspase-2) [µM],inhibition at 10 µM (Caspase-10) [%],inhibition at 100 µM (Caspase-10) [%],IC50 (Caspase-10; read-out: IC50 Casp10) [µM],inhibition at 10 µM (Caspase-9; 10 uM) [%],inhibition at 100 µM (Caspase-9; 100 uM) [%],IC50 (Caspase-9; read-out: IC50 Casp9) [µM],inhibition at 10 µM (Caspase-6) [%],inhibition at 100 µM (Caspase-6) [%],IC50 (Caspase-6) [µM],inhibition at 10 µM (Caspase-8; 10 uM) [%],inhibition at 100 µM (Caspase-8; 100 uM) [%],IC50 (Caspase-8; read-out: IC50 Casp8),further results
"CS(=O)(=O)/C(Cl)=C/[C@@H](N)CC(=O)O [Compound 4, Asp achlorovinyl methyl vinyl sulfone, Tosyl Salt]",0,0,> 100,0,0,> 100,36,43,> 100,,,> 100,0,0,> 100,,,> 100 µM,inhibition at 10 µM (Caspase-9): 0%; inhibition at 100 µM (Caspase-9): 0%; inhibition at 10 µM (Caspase-8): 6%; inhibition at 100 µM (Caspase-8): 13%
